According to US8946266B2, “Substituted triazole and imidazole derivatives as gamma secretase modulators” (Janssen Pharmaceuticals, Inc., priority 2009, dated 2015):
Where two headings read alike, the source gives them in different places.

What was measured:
Aβ42 = assay: γ-secretase-modulating activity, Method 2: Aβ42 Alphalisa in supernatant of SKNBE2 cells carrying APP 695-wild type (Table 3b); format: cell-based; settings: overnight
How it was run: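 Aβ42 in the supernatant was quantified by AlphaLISA sandwich (JRF/cAβ42/26 with JRF/AβN/25). Cells were wild-type APP695 SKNBE2, exposed to compound overnight at 37° C., 5% CO2. Data were normalised to untreated maximum and fitted with a four-parameter curve to give IC50.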

Aβtotal = assay: γ-secretase-modulating activity, Method 2: Aβtotal Alphalisa in supernatant of SKNBE2 cells carrying APP 695-wild type (Table 3b); format: cell-based; settings: overnight, read-out: IC50 Aβtot
How it was run: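 Secreted Aβtotal was quantified by AlphaLISA pairing an N-terminal antibody (JRF/AβN/25) with biotinylated mid-region 4G8. Wild-type APP 695 SKNBE2 cells received serially varied compound overnight at 37 °C; IC50 came from a 4-parameter nonlinear regression of percent of control against log dose.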

Row | SMILES | IC50 (Aβ42) [µM] | IC50 (Aβtotal) [µM] | IC50 (Aβ42; Homo sapiens) [µM] | IC50 (Aβtotal; Homo sapiens) [µM]
1 | COc1cc(-c2nc(Nc3cccc(C#N)c3)n(C)n2)ccc1-n1cnc(C)c1 [Compound 224] | 0.646 | > 10 | – | –
2 | COc1cc(-c2nc(Nc3ccc(C#N)cc3)n(C)n2)ccc1-n1cnc(C)c1 [Compound 225] | 1.45 | > 10 | – | –
3 | COc1cc(-c2nc(Nc3cc(C#N)ccc3F)n(C)n2)ccc1-n1cnc(C)c1 [Compound 226] | 0.417 | > 10 | – | –
4 | COc1cc(-c2nc(Nc3ccc(C#N)cc3F)n(C)n2)ccc1-n1cnc(C)c1 [Compound 227] | 0.676 | 0.891 | – | –
5 | COc1cc(-c2nc(Nc3ccc(F)cc3C#N)n(C)n2)ccc1-n1cnc(C)c1 [Compound 228] | 4.47 | > 10 | – | –
6 | COc1cc(-c2nc(Nc3cccc(C#N)c3F)n(C)n2)ccc1-n1cnc(C)c1 [Compound 229] | 0.295 | > 10 | – | –
7 | COc1cc(-c2nc(Nc3ccc(C#N)cc3C(F)(F)F)n(C)n2)ccc1-n1cnc(C)c1 [Compound 230] | 0.302 | > 10 | – | –
8 | COc1cc(-c2nc(Nc3ccc4c(c3)OC(F)(F)O4)n(C)n2)ccc1-n1cnc(C)c1 [Compound 231] | 0.056 | 5.89 | – | –
9 | COc1cc(-c2nc(N(C(C)=O)c3cc(F)c(F)cc3I)n(C)n2)ccc1-n1cnc(C)c1 [Compound 232] | – | – | 1.41 | > 10
10 | COc1cc(-c2nc(Nc3cccnc3C(F)(F)F)n(C)n2)ccc1-n1cnc(C)c1 [Compound 233] | 0.603 | > 10 | – | –
11 | COc1cc(-c2nc(Nc3ccnc(Cl)c3)n(C)n2)ccc1-n1cnc(C)c1 [Compound 234] | 0.955 | > 10 | – | –
12 | COc1cc(-c2nc(Nc3ccnc(C(F)(F)F)c3)n(C)n2)ccc1-n1cnc(C)c1 [Compound 235] | 0.132 | > 10 | – | –
13 | COc1cc(-c2nc(Nc3cccnc3)n(C)n2)ccc1-n1cnc(C)c1 [Compound 237] | 3.16 | > 10 | – | –
14 | COc1cc(-c2nc(Nc3ccc(C)nc3)n(C)n2)ccc1-n1cnc(C)c1 [Compound 238] | 1.58 | > 10 | – | –
15 | COc1cc(-c2nc(Nc3ccnc(C)c3)n(C)n2)ccc1-n1cnc(C)c1 [Compound 239] | 4.47 | > 10 | – | –
16 | COc1cc(-c2nc(Nc3ncccc3C(F)(F)F)n(C)n2)ccc1-n1cnc(C)c1 [Compound 240] | 0.794 | > 10 | – | –
17 | COc1cc(-c2nc(Nc3cccnc3OC)n(C)n2)ccc1-n1cnc(C)c1 [Compound 241] | 0.741 | > 10 | – | –
18 | COc1cc(-c2nc(Nc3ccc(=O)n(C)c3)n(C)n2)ccc1-n1cnc(C)c1 [Compound 242] | > 10 | > 10 | – | –
19 | COc1cc(-c2nc(Nc3cccn(C)c3=O)n(C)n2)ccc1-n1cnc(C)c1 [Compound 243] | 8.32 | > 10 | – | –
20 | COc1cc(-c2nc(NCc3ccccc3)n(C)n2)ccc1-n1cnc(C)c1 [Compound 245] | 0.646 | > 10 | – | –

Row | SMILES | IC50 (Aβ42) [µM] | IC50 (Aβtotal) [µM] | IC50 (Aβ42; Homo sapiens) [µM] | IC50 (Aβtotal; Homo sapiens) [µM]
21 | COc1cc(-c2nc(Oc3cccc(C(F)(F)F)c3)n(C)n2)ccc1-n1cnc(C)c1 [Compound 246] | 0.269 | 9.77 | – | –
22 | COc1cc(-c2nc(Oc3ccccc3Cl)n(C(C)C)n2)ccc1-n1cnc(C)c1 [Compound 247] | 0.363 | 8.13 | – | –
23 | COc1cc(-c2nc(Sc3cccc(C(F)(F)F)c3)n(C)n2)ccc1-n1cnc(C)c1 [Compound 249] | – | – | 0.646 | > 10
24 | COc1cc(-c2nc3n(n2)CCCC32CCCCC2)ccc1-n1cnc(C)c1 [Compound 270] | 0.17 | > 10 | – | –
25 | COc1cc(-c2nc(Oc3ccccc3Cl)n(C)n2)ccc1-n1cnc(C)n1 [Compound 272] | 7.59 | > 10 | – | –
26 | COc1cc(-c2nc(Nc3cccc(C(F)(F)F)c3)n(C)n2)ccc1-n1cnc(C)n1 [Compound 273] | 0.155 | 10 | – | –
27 | COc1cc(-c2nc3c(-c4ccccc4Cl)cccn3n2)ccc1-n1cnc(C)c1 [Compound 286] | 0.145 | 10 | – | –
28 | COc1cc(-c2nc3c(-c4cccc(OC(F)(F)F)c4)cccn3n2)ccc1-n1cnc(C)c1 [Compound 287] | 0.355 | > 10 | – | –
29 | COc1cc(-c2nc3c(-c4ccccc4OC(F)(F)F)cccn3n2)ccc1-n1cnc(C)c1 [Compound 288] | 0.151 | > 10 | – | –
30 | COc1cc(-c2nc3c(Nc4cccc(C(F)(F)F)c4)cccn3n2)ccc1-n1cnc(C)c1 [Compound 289] | 0.708 | > 10 | – | –
31 | COc1cc(-c2nc3c(-c4ccccc4)nccn3n2)ccc1-n1cnc(C)c1 [Compound 292] | 2.34 | > 10 | – | –
32 | COc1cc(-c2nc3c(-c4cccc(C(F)(F)F)c4)nccn3n2)ccc1-n1cnc(C)c1 [Compound 293] | 2.34 | > 10 | – | –
33 | COc1cc(-c2nc(-c3cc(C(F)(F)F)ccc3C)nn2C)ccc1-n1cnc(C)c1 [Compound 296] | 1.51 | 6.03 | – | –
34 | COc1cc(-c2nc(-c3cc(Cl)ccc3C)n[nH]2)ccc1-n1cnc(C)c1 [Compound 297] | 0.263 | > 10 | – | –
35 | COc1cc(-c2nc(-c3cc(Cl)ccc3C)nn2C)ccc1-n1cnc(C)c1 [Compound 298] | 3.09 | > 10 | – | –
36 | COc1cc(-c2nc(N3CCCN(C(C)=O)CC3)n(C(C)C)n2)ccc1-n1cnc(C)c1 [Compound 301] | > 10 | > 10 | – | –
37 | COc1cc(-c2nc(Nc3cc(C(=O)N(C)C)ccc3F)n(C)n2)ccc1-n1cnc(C)c1 [Compound 308] | 1.7 | > 10 | – | –
38 | COc1cc(-c2nc(Nc3cc(S(C)(=O)=O)ccc3F)n(C)n2)ccc1-n1cnc(C)c1 [Compound 309] | 1.07 | > 10 | – | –
39 | COc1cc(-c2nc(CNc3cccc(C(F)(F)F)c3)n(C)n2)ccc1-n1cnc(C)c1 [Compound 311] | 0.186 | 7.41 | – | –

The remaining lines, values ahead:

Row | IC50 (Aβ42) [µM] | IC50 (Aβtotal) [µM] | IC50 (Aβ42; Homo sapiens) [µM] | IC50 (Aβtotal; Homo sapiens) [µM] | SMILES
40 | 0.389 | > 10 | – | – | COc1cc(-c2nc(Oc3ccccc3Cl)n(C)n2)ccc1-n1cnc(C)c1 [Compound 248]
41 | 0.24 | > 10 | – | – | COc1cc(-c2nc3n(n2)CCCC3c2cccc(F)c2)ccc1-n1cnc(C)c1 (centres unmarked) [Compound 252]
42 | 0.17 | > 10 | – | – | COc1nc(-c2nc3n(n2)CCCC3c2ccc(F)cc2)ccc1-n1cnc(C)c1 (centres unmarked) [Compound 253]
43 | 0.234 | > 10 | – | – | COc1cc(-c2nc3n(n2)CCC[C@@H]3c2ccccc2Cl)ccc1-n1cnc(C)c1 [Compound 254]
44 | 0.021 | > 10 | – | – | COc1cc(-c2nc3n(n2)CCCC3c2ccccc2Cl)ccc1-n1cnc(C)c1 (centres unmarked) [Compound 256]
45 | 0.148 | > 10 | – | – | COc1cc(-c2nc3n(n2)CCCC3c2ccccc2F)ccc1-n1cnc(C)c1 (centres unmarked) [Compound 257]
46 | 0.158 | > 10 | – | – | COc1cc(-c2nc3n(n2)CCCC3c2ccc(F)cc2F)ccc1-n1cnc(C)c1 (centres unmarked) [Compound 259]
47 | 0.324 | > 10 | – | – | COc1nc(-c2nc3n(n2)CCC[C@@H]3c2ccccc2C(F)(F)F)ccc1-n1cnc(C)c1 [Compound 262]
48 | 0.074 | > 3 | – | – | COc1cc(-c2nc3n(n2)CCCC3c2ccccc2OC(F)(F)F)ccc1-n1cnc(C)c1 (centres unmarked) [Compound 266]
49 | 0.049 | > 10 | – | – | COc1cc(-c2nc3n(n2)CCCC3c2cccc(OC(F)(F)F)c2)ccc1-n1cnc(C)c1 (centres unmarked) [Compound 267]
50 | 0.141 | > 10 | – | – | COc1cc(-c2nc3n(n2)CCCC3c2ccc(C(F)(F)F)cc2)ccc1-n1cnc(C)c1 (centres unmarked) [Compound 268]
51 | – | – | 0.148 | > 10 | COc1cc(-c2nc3n(n2)CCCC3(O)c2ccc(F)cc2C)ccc1-n1cnc(C)c1 (centres unmarked) [Compound 269]
52 | – | – | 0.155 | 8.71 | COc1cc(-c2nc3n(n2)CCC(c2ccccc2C(F)(F)F)N3)ccc1-n1cnc(C)c1 (centres unmarked) [Compound 274]
53 | – | – | 0.832 | > 10 | COc1cc(-c2nc3n(n2)CCN(C(C)=O)C3c2ccccc2C(F)(F)F)ccc1-n1cnc(C)c1 (centres unmarked) [Compound 276]
54 | 0.661 | > 10 | – | – | COc1cc(-c2nc3n(n2)CCN(C(C)=O)C3c2cccc(C(F)(F)F)c2)ccc1-n1cnc(C)c1 (centres unmarked) [Compound 277]
55 | – | – | 0.062 | > 10 | COc1cc(-c2nc3n(n2)CCOC3c2ccccc2C(F)(F)F)ccc1-n1cnc(C)c1 (centres unmarked) [Compound 279]
56 | 0.191 | > 10 | – | – | COc1cc(-c2nc3n(n2)CCOC3c2ccc(F)cc2C)ccc1-n1cnc(C)c1 (centres unmarked) [Compound 280]
57 | 0.38 | > 10 | – | – | COc1cc(-c2nc3n(n2)CCOC3c2ccc(F)cc2F)ccc1-n1cnc(C)c1 (centres unmarked) [Compound 282]
58 | 0.078 | 7.94 | – | – | COc1cc(-c2nc3n(n2)CCCCC3c2ccccc2C(F)(F)F)ccc1-n1cnc(C)c1 (centres unmarked) [Compound 283]
59 | 0.229 | > 10 | – | – | COc1cc(-c2nc3n(n2)CCCOC3c2ccc(F)cc2)ccc1-n1cnc(C)c1 (centres unmarked) [Compound 284]
60 | 0.076 | > 10 | – | – | COc1cc(-c2nc3n(n2)CCCOC3c2ccccc2C(F)(F)F)ccc1-n1cnc(C)c1 (centres unmarked) [Compound 285]
61 | 0.646 | > 10 | – | – | COc1cc(-c2nc3n(n2)CCOC3c2ccc(F)cc2C)ccc1-n1cnc(C)c1 (centres unmarked) [Compound 305]
62 | 0.123 | > 10 | – | – | COc1cc(-c2nc3n(n2)CCCC3c2c(F)cc(F)cc2F)ccc1-n1cnc(C)c1 (centres unmarked) [Compound 312]
63 | 0.068 | > 10 | – | – | COc1nc(-c2nc3n(n2)CCCC3c2ccc(F)cc2C)ccc1-n1cnc(C)c1 (centres unmarked) [Compound 313]
64 | 0.288 | > 10 | – | – | COc1cc(-c2nc3n(n2)CCC[C@@H]3c2ccc(F)cc2C)ccc1-n1cnc(C)c1 [Compound 314]
